On the set-up of data set [1]: method as in PMID 17096093, PMID 18800204. The conditions noted are these: cited from earlier work.
Data set [2] in a line: Quantification of MADAM and metabolites in HLM incubations by UHPLC/Q-ToF-MS. The conditions noted are these: for Concentration in HLM incubation: MADAM 10 μM initial. It is filed as in vitro ADME, human. The protocol:
(§1) MADAM and/or [^11C]MADAM (5–15 MBq) were incubated with HLM and RLM (0.5 mg/mL) at 37°C in 1 mL of 0.05 M potassium phosphate buffer (pH 7.4) containing 5 mM NADPH. Experiments were performed with MADAM concentrations of 1 and 10 μM. The incubation times were the following: […] (RLM experiments); 10, 45 and 90 min (HLM experiments). The incubation was stopped by adding an equal volume of ice-cold acetonitrile. The mixture was then vortexed and centrifuged and the supernatant was removed, evaporated. The residue was reconstituted in 150 μL mobile phase before being analyzed by radio-HPLC and UHPLC/Q-ToF-MS as described below. Control incubations in the absence of microsomes, MADAM or NADPH were also performed to assure that the observed peaks corresponded to MADAM metabolites.
(§2) The analyses were performed on a Waters (Milford, MA, USA) Acquity Ultra Performance LC^TM binary solvent manager coupled to a photodiode array detector and Waters (Micromass UK Limited, Manchester, UK) Q-Tof Premier. All the samples (10 μL) were injected onto a Waters Ethylene Bridged Hybrid (BEH) C18 column (2.1 x 50 mm, 1.7 μm) and eluted by a 5 min linear gradient starting from 100% water containing 0.1% formic acid and ending with 30% acetonitrile containing 0.1% formic acid at a flow rate of 0.5 mL/min. Positive electrospray ionization (+ESI) in V-mode with an extended dynamic range was used under the following conditions: capillary 3.5 kV, sampling cone 25 V, extraction cone 4.5 V, source temperature 100°C and desolvation temperature 380°C. Two scan functions, MS and MS^E, in the mass range of 100–1000 Da, were performed simultaneously. The collision energy was set to 5 eV during the MS acquisition and it was ramped from 10 to 35 eV during the MS^E acquisition. MetaboLynx^TM (Waters, Milford, MA, USA) was used to aid metabolite identification.
In the present study, we further aimed to estimate the concentration of the ligand (MADAM) as well as that of the identified metabolites, among them NHMADAM, SOMADAM and NHSOMADAM, for which reference compounds were available. UHPLC/Q-ToF-MS instrumentation was employed to quantify these compounds in RLM and HLM incubations using AFM as the internal standard. In HLM incubations, the concentration of MADAM decreased from 10 μM to 7.76 ± 0.5 μM at 30 min and approximately half of MADAM (5.1 ± 0.5 μM) was still present after an incubation time of 120 min. […] Negligible amounts of the other two metabolites, SOMADAM and NHSOMADAM, were detected at these times. The concentration of SOMADAM ranged from 0.12 ± 0.02 μM to 0.15 ± 0.01 μM over time. A very slight increase in the concentration of NHSOMADAM was observed, from 0.12 ± 0.01 μM to 0.32 ± 0.03 μM at 30 min and 120 min incubation times, respectively.

Data set [3] is described as follows: Quantification of MADAM and metabolites in RLM incubations by UHPLC/Q-ToF-MS. The conditions noted are these: for Concentration in RLM incubation / Concentration in RLM incubation (in words): MADAM 10 μM initial; for Concentration in RLM incubation (in words): various incubation times. It is filed as in vitro ADME, rat. On the procedure: as §1, §2
The parent compound MADAM was present at a concentration of 1.83 ± 0.20 μM at 10 min and from 30 min the concentration was very low (0.17 to 0.09 μM), indicating a fast metabolism in RLM. […] However, the concentration of the latter declined to 2.08 ± 0.3 μM to at 10 min and to 0.72 ± 0.31 at 60 min. The quantification in HLM experiments was not undertaken after 120 min.

Details of data set [4]: method as in PMID 24857865. The conditions noted are these: cited from earlier work; for Fraction of total radioactivity in plasma: macaque plasma.
The nature of data set [5]: Incubation of [^11C]MADAM with rat liver microsomes, radio-HPLC. It is filed as in vitro ADME. The conditions noted are these: for Percentage of unchanged [^11C]MADAM: RLM 0.5 mg/mL, NADPH, no-carrier-added. On the procedure: as §1
(§3) Reversed phase HPLC was used to determine the percentages of radioactivity in microsomal incubation samples that corresponded to unchanged radioligand and its radiometabolites. The HPLC system consists of a Merck Hitachi D-7000 pump, an interface module, a Merck Hitachi L-7400 UV absorbance detector (254 nm) in series with a Packard Radiomatic 150TR radiodetector equipped with a 600 μL flow cell, and a Rheodyne 7125 manual injector. A Waters μ-Bondapak C18 column (7.8 x 300 mm, 10 μm) with acetonitrile (A) and ammonium formate 0.1M (B) as the mobile phase was used with a flow rate of 6.0 mL/min, according to the following gradient: 0–4.5 min, (A/B) 10/90-15/85; 4.5–5.0 min, (A/B) 15/85-20/80; 5.0–5.5 min (A/B) 20/80-45/55; 5.5–9.0 min (A/B) 45/55; 9.0–10 min (A/B) 45/55-70/30; 10.0–20.0 min (A/B) 70/30. The detected peaks were integrated and their areas were expressed as a percentage of the sum of areas of all radioactive compounds present (decay-corrected).

Data set [6] in a line: Incubation of [^11C]MADAM with human liver microsomes, radio-HPLC. It is filed as in vitro ADME. The conditions noted are these: for Percentage of unchanged [^11C]MADAM: HLM 0.5 mg/mL, NADPH, no-carrier-added; for Intact [^11C]MADAM (%): HLM, t = 45 min. The protocol:
as §1, §3
A general note: Liver microsomes are vesicles of endoplasmic reticulum, rich in cytochrome P450 enzymes.

Data set [7] in a line: Radio-HPLC of rat urine after intravenous perfusion of [^11C]MADAM/MADAM. It is filed as in vivo. The conditions noted are these: for Percentage of intact [^11C]MADAM in urine: no carrier added. The protocol: as §3
All animal handling and experiments were carried out in accordance with the guidelines of Karolinska Institutet and were approved by the local laboratory animal ethics committee (N 363/05 and N 373/07). The rats were housed under standard laboratory conditions with free access to laboratory food and water ad libitum. Male Sprague-Dawley rats were anesthetized with isoflurane, via an E-Z anesthesia vaporizer (5% initially and then 1.5% to maintain anesthesia, blended with 7:3 air: O2 and delivered through a Microflex non-rebreathing mask from Euthanex Corporation, Palmer, PA. The rats were placed on a heating pad (37°C) while [^11C]MADAM (52–76 MBq) and/or MADAM (25 μg to 1 mg) as a perfusion were administered intravenously; the rats were sacrificed at various time points after the administration (15, 30 and 60 min). Urine samples were collected at each time point and acetonitrile (400 μL) was added. After centrifugation at 3000g for 4 min, the supernatant was injected into the radio-HPLC (section 2.3). The radioactivity of the precipitate was measured to quantify the efficiency of the acetonitrile extraction.

On the set-up of data set [8]: method as in PMID 16157534. The conditions noted are these: 50 min after injection; cited from earlier work.
Details of data set [9]: method as in PMID 24857865. The conditions noted are these: rats euthanized 15 and 30 min post injection; cited from earlier work.
On the set-up of data set [10]: method as in earlier work. The conditions noted are these: human, 60 minutes after injection, cited from earlier work.

Molecules are shown by their SMILES. Where two headings read alike, the source gives them in different places.

Consider `Cc1ccc(C2CC3CCC(C2C(=O)O[11CH3])N3CC=CI)cc1` (stereo not shown) [[^11C]PE2I], for which the “Effect of addition of carrier on radiometabolic profile” value in data set [1] is given as “not affect the radiometabolic profile”.

As to `Cc1ccc(Sc2ccccc2CN(C)C)c(N)c1` [MADAM], the “Concentration in HLM incubation” value in data set [2] (incubation 30 min) is 7760 ± 500 nM; in data set [2] (incubation 120 min), 5100 ± 500 nM. Also, the “Concentration in RLM incubation” value in data set [3] (incubation 10 min) was 1830 ± 200 nM.

Turning to `Cc1ccc(S(=O)(=O)c2ccccc2CN(C)C)c(N)c1` [SO2MADAM], the “Detection as metabolite of MADAM in microsomal preparations” value is “not detected” in data set [2] (HLM, MADAM 10 μM) and “not detected” in data set [3] (RLM, MADAM 10 μM).

As for `Cc1ccc([S+]([O-])c2ccccc2CN(C)[11CH3])c(N)c1` (stereo not shown) [[^11C]SOMADAM], the “Fraction of total radioactivity in plasma” value in data set [4] (4 min after injection of [^11C]MADAM) is listed as 5%; in data set [4] (15 min after injection of [^11C]MADAM), 1%.

For `Cc1ccc(Sc2ccccc2CN(C)[11CH3])c(N)c1` [[^11C]MADAM], the “Percentage of unchanged [^11C]MADAM” value is 3.3 ± 1% in data set [5] (incubation 1 min); 3.3 ± 1% ^1 in data set [5] (incubation 1 min, listed as [ ^11 C]MADAM); “no [^11C]MADAM was detected” in [5] (incubation 4 min); 51 ± 4% in [6] (incubation 10 min); 51 ± 4% in data set [6] (incubation 10 min, listed as [ ^11 C]MADAM); 35 ± 1% in data set [6] (incubation 45 min). Further, the “Percentage of unchanged [^11C]MADAM” value in data set [6] (incubation 45 min, listed as [ ^11 C]MADAM) is recorded as 35 ± 1%; in data set [6] (incubation 90 min), 16 ± 1%; in [6] (incubation 90 min, listed as [ ^11 C]MADAM), 16 ± 1%. Moreover, the “Radiometabolites in control incubations” value is “No radiometabolites were detected” in data set [5] (RLM experiments, control without either NADPH or microsomes) and “No radiometabolites were detected” in data set [6] (HLM experiments, control without either NADPH or microsomes). The “Intact [^11C]MADAM (%)” value in [5] (RLM, t = 1 min, carrier MADAM 10 μM) worked out at 78 ± 4%; in data set [6] (carrier MADAM 1 μM), 58 ± 2%; in data set [6] (carrier MADAM 10 μM), 80 ± 5%. Besides, the “Radiometabolites by radio-HPLC or UHPLC/Q-ToF-MS” value in data set [7] (high dose of MADAM approximately 1 mg perfused) was “no radiometabolites were detected”. In addition, the “Percentage of unchanged [^11C]MADAM in urine” value in data set [7] (i.v. perfusion 15 min, carrier MADAM 25 μg) amounted to 16%. The Radiometabolites in urine entry in data set [7] (i.v. perfusion 15 min, carrier MADAM 125 μg) is on record as “no radiometabolites were observed”; in [7] (more than 25 μg carrier, perfusion time 30 and 60 min), “no radiometabolites were detected”. The “Percentage of intact [^11C]MADAM in urine” value is on record as 9% in data set [7] (i.v. perfusion 15 min), “undetectable” in [7] (i.v. perfusion 30 min) and “undetectable” in data set [7] (i.v. perfusion 60 min). Moreover, in [8], the “Percentage of unchanged radioligand in human plasma” value is recorded as “approximately 40%”. In [9], the “Radioactive species in rat brain by radio-HPLC” value was “only one radioactive peak corresponding to [^11C]MADAM”.

As for `Cc1ccc([S+]([O-])c2ccccc2CN(C)C)c(N)c1` (stereo not shown) [SOMADAM], the “Concentration in RLM incubation (in words)” value in data set [3] is recorded as “very low concentrations”.

Take `[11CH3]Oc1ccccc1O[C@@H](c1ccccc1)[C@@H]1CNCCO1` [(S,S)-[^11C]MeNER]: the “Effect of addition of carrier on radiometabolic profile” value in data set [1] is “not affect the radiometabolic profile”.

In the case of `Cc1ccc(S(=O)(=O)c2ccccc2CN(C)[11CH3])c(N)c1` [[^11C]SO2MADAM], in data set [4] (macaque plasma after injection of [^11C]MADAM), the “Detection in plasma as further oxidation product” value was “No further oxidation to [^11C]SO2MADAM was detected”.

For `CNCc1ccccc1Sc1ccc(C)cc1N` [NHMADAM], the entries for the “Concentration in HLM incubation” value in data set [2] (incubation 30 min) and in [2] (incubation 120 min) were 2080 ± 400 nM and 2890 ± 400 nM, respectively. The “Concentration in RLM incubation” value in data set [3] (incubation 10 min) was 2080 ± 300 nM; in data set [3] (incubation 60 min), 720 ± 310 nM.

As for `CNCc1ccccc1[S+]([O-])c1ccc(C)cc1N` (stereo not shown) [NHSOMADAM], the “Concentration in HLM incubation” value in data set [2] (incubation 30 min) was 120 ± 10 nM; in data set [2] (incubation 120 min) it was 320 ± 30 nM. In data set [3], the “Concentration in RLM incubation (in words)” value is recorded as “very low concentrations”.

Take `[11CH3]N1CCc2cc(Cl)c(O)cc2C2c3ccccc3CCC21` (stereo not shown) [[^11C]SCH 39166]: the “Percentage unchanged in plasma” value is “approximately 30%” in [10] (high specific radioactivity) and about 15% in [10] (low specific radioactivity).

Values taken from PMC4569384, “[^11C]MADAM Used as a Model for Understanding the Radiometabolism of Diphenyl Sulfide Radioligands for Positron Emission Tomography (PET)” (PLoS ONE, 2015).
